The text below walks through data of patent EP0185259A2, “Pteridines, process for their preparation, and their use as intermediates or as medicaments” (Dr. Karl Thomae GmbH, priority 1984, dated 1986).

Data set [1] concerns the target Phosphodiesterase aus B16 Melanomgewebe von Mäusen. The data set is described as follows: PDE inhibition (PDE assay), enzyme from B16 melanoma tissue, 3H-cAMP substrate. The class given is biochemical. The following applies: PDE from mouse B16 melanoma tissue; 1 µmol/l 3H-cAMP as substrate; linear regression; read-out: PDE-Hemmung (IC50 in µmol/l) B16-Tumorzellen. The text has this: (§1) Beispielsweise wurden die Verbindungen • A = 4,7-Dimorpholino-6-phenyl-2-piperazino-pteridin, • B = 4-Morpholino-7-(1-oxidothiomorpholino)-2-piperazino-6-phenyl-pteridin, • C = 7-Benzylamino-6-phenyl-2-piperazino-4-thiomorpholino- pteridin, • D = 7-Dimethylamino-6-phenyl-2-piperazino-4-pyrrolidino- pteridin und • E = 7-Benzylamino-4-(N-methyl-2'-hydroxyethylamino)-2-piperazino-pteridin auf ihre Hemmwirkung auf die Phosphodiesterase (PDE) von Tumorzellen und von Humanthrombozyten in vitro in Anlehnung an die von Pöch et al. beschriebenen Methode wie folgt untersucht (siehe Naunyn-Schmiedebergs Arch. Pharmak.
(§2) Die Phosphodiesterase wurde aus B16 Melanomgewebe von Mäusen durch Zentrifugation des Gewebehomogenates bei 5.000 x g (15 min. 4°C) gewonnen. Die Homogenisation der Gewebe erfolgte durch wiederholtes Frieren/Auftauen und Homogenisation nach Potter-Elvehjem bzw. durch Ultraschall. Der die PDE enthaltende Homogenat-Überstand wurde portioniert und bei -25°C tiefgefroren.
(§3) Die Bestimmung der PDE-Hemmung durch die Prüfsubstanzen erfolgte mit 1 µmol/l ^3H-cAMP als Substrat. Die PDE-Hemmung wurde durch Messung des Abbaus des eingesetzten Substrats ^3H-cAMP zu ^3H-AMP im Vergleich zur Kontrolle ohne Prüfsubstanz erfaßt.
(§4) Das gebildete ^3H-AMP wurde durch eine Zinksulfat-Bariumhydroxid-Fällung vom verbliebenen ^3H-CAMP abgetrennt.

The next data set has as its system Mäusen. The data set can be described thus: Orientating acute toxicity in mice, single oral dose. The class given is in vivo. The following applies: observation time 14 days; for Orientierende aktute Toxizität (Tiere gestorben): single oral dose of 250 mg, animals dead of animals treated; for Orientierende aktute Toxizität: single oral dose. The text has this: Die orientierende akute Toxizität der zu untersuchenden Substanzen wurde orientierend an Gruppen von je […] Mäusen nach oraler Gabe einer Einzeldosis bestimmt (Beobachtungszeit: 14 Tage) : […]

Data set [2] deals with Phosphodiesterase (PDE) von Humanthrombozyten. The data set is described as follows: PDE inhibition (PDE assay), enzyme from human platelets, 3H-cAMP substrate. To be noted: 1 µmol/l 3H-cAMP as substrate, linear regression, read-out: PDE-Hemmung (IC50 in µmol/l) Thrombozyten. It is filed as biochemical.
Text: as §1, §2
Die Gewinnung der Phosphordiesterase aus Humanthrombozyten erfolgte in gleicher Weise.
as §3, §4

With `c1ccc(-c2nc3c(N4CCOCC4)nc(N4CCNCC4)nc3nc2N2CCOCC2)cc1` [A, 4,7-Dimorpholino-6-phenyl-2-piperazino-pteridin], in data set [1], the IC50 amounted to 4.3 µmol/L. Besides, in the data set on Mäusen, the “Orientierende aktute Toxizität (Tiere gestorben)” value worked out at 0 von 5 and the “Orientierende aktute Toxizität” value is on record as over 250 mg. In addition, the IC50 in data set [2] stood at 0.54 µmol/L.

As to `[O-][S+]1CCN(c2nc3nc(N4CCNCC4)nc(N4CCOCC4)c3nc2-c2ccccc2)CC1` [B, 4-Morpholino-7-(1-oxidothiomorpholino)-2-piperazino-6-phenyl-pteridin], the IC50 in data set [1] was found to be 3.1 µmol/L; in data set [2] it was 2.2 µmol/L.

For `c1ccc(CNc2nc3nc(N4CCNCC4)nc(N4CCSCC4)c3nc2-c2ccccc2)cc1` [C, 7-Benzylamino-6-phenyl-2-piperazino-4-thiomorpholino-pteridin], the IC50 in data set [1] was found to be 0.096 µmol/L. Also, in the data set on Mäusen, the “Orientierende aktute Toxizität (Tiere gestorben)” value was 0 von 5 and the “Orientierende aktute Toxizität” value is recorded as over 250 mg. Further, the IC50 in data set [2] is 0.5 µmol/L.

Turning to `CN(C)c1nc2nc(N3CCNCC3)nc(N3CCCC3)c2nc1-c1ccccc1` [D, 7-Dimethylamino-6-phenyl-2-piperazino-4-pyrrolidino-pteridin], the IC50 in data set [1] was found to be 0.78 µmol/L. Besides, in the data set on Mäusen, the “Orientierende aktute Toxizität (Tiere gestorben)” value worked out at 0 von 5 and the “Orientierende aktute Toxizität” value is over 250 mg. In addition, in data set [2], the IC50 stood at 3.6 µmol/L.

In the case of `CN(CCO)c1nc(N2CCNCC2)nc2nc(NCc3ccccc3)cnc12` [E, 7-Benzylamino-4-(N-methyl-2'-hydroxyethylamino)-2-piperazino-pteridin], the IC50 in data set [1] stood at 8.3 µmol/L. Besides, in the data set with Mäusen, the “Orientierende aktute Toxizität (Tiere gestorben)” value worked out at 0 von 5 and the “Orientierende aktute Toxizität” value was over 250 mg. In data set [2], the IC50 worked out at 3.7 µmol/L.
